Measured values published in article PMC5877387, “Nanoparticles engineered to bind cellular motors for efficient delivery” (Journal of Nanobiotechnology, 2018).

Legend:
Vero cells = test: Inhibition assays of NP transport with cytoskeleton-depolymerizing drugs; format: cell-based; conditions: Nocodazole 2.5 µM, Latrunculin A 0.1 µM; 1.5 µM NPs, 37 °C
[1] = Cytotoxicity of inhibitors, trypan blue exclusion; conditions: at working concentrations (Nocodazole 2.5 µM, Latrunculin A 0.1 µM)

| Compound | effect of drug on Au@DBP distribution, movement and spread (Vero cells) | cytotoxicity (cell death) after drug incubation [1] [%] |
| --- | --- | --- |
| C/C1=C/C(=O)O[C@@H]2C[C@@H](CC[C@H](C)/C=C\C=C\CC1)O[C@@](O)([C@@H]1CSC(=O)N1)C2 [Latrunculin A] | did not stop | ≤ 10 |
| COC(=O)Nc1nc2ccc(C(=O)c3cccs3)cc2[nH]1 [Nocodazole] | reversibly stopped | ≤ 10 |
